The supplement of paper PMC13380429

Legend:
Details in all cases: 72 h
Caco-2 [1] = assay: cell viability relative to DMSO; higher = less toxic
Calu-3 [2] = assay: as above
HepG2 [3] = assay: as above
U2OS [4] = assay: as above
Vero E6 [5] = assay: as above
Caco-2 [6] = assay: relative viability EC50 (midpoint between 100% and the lowest measured viability); higher = less toxic
Calu-3 [7] = assay: as above
HepG2 [8] = assay: as above
U2OS [9] = assay: as above
Vero E6 [10] = assay: as above
Caco-2 [11] = assay: drug sensitivity score (DSS) for viability; higher = more toxic; extreme values may be limits of the assay
Calu-3 [12] = assay: as above
HepG2 [13] = assay: as above
U2OS [14] = assay: as above
Vero E6 [15] = assay: as above

SMILES	cell viability (Caco-2 [1]; 1 nM) [%]	cell viability (Caco-2 [1]; 10 nM) [%]	cell viability (Caco-2 [1]; 100 nM) [%]	cell viability (Caco-2 [1]; 1000 nM) [%]	cell viability (Caco-2 [1]; 10000 nM) [%]	cell viability (Calu-3 [2]; 1 nM) [%]	cell viability (Calu-3 [2]; 10 nM) [%]	cell viability (Calu-3 [2]; 100 nM) [%]	cell viability (Calu-3 [2]; 1000 nM) [%]	cell viability (Calu-3 [2]; 10000 nM) [%]	cell viability (HepG2 [3]; 1 nM) [%]	cell viability (HepG2 [3]; 10 nM) [%]	cell viability (HepG2 [3]; 100 nM) [%]	cell viability (HepG2 [3]; 1000 nM) [%]	cell viability (HepG2 [3]; 10000 nM) [%]	cell viability (U2OS [4]; 1 nM) [%]	cell viability (U2OS [4]; 10 nM) [%]	cell viability (U2OS [4]; 100 nM) [%]	cell viability (U2OS [4]; 1000 nM) [%]	cell viability (U2OS [4]; 10000 nM) [%]	cell viability (Vero E6 [5]; 1 nM) [%]	cell viability (Vero E6 [5]; 10 nM) [%]	cell viability (Vero E6 [5]; 100 nM) [%]	cell viability (Vero E6 [5]; 1000 nM) [%]	cell viability (Vero E6 [5]; 10000 nM) [%]	relative viability EC50 (Caco-2 [6]) [µM]	relative viability EC50 (Calu-3 [7]) [µM]	relative viability EC50 (HepG2 [8]) [µM]	relative viability EC50 (U2OS [9]) [µM]	relative viability EC50 (Vero E6 [10]) [µM]	drug sensitivity score (Caco-2 [11])	drug sensitivity score (Calu-3 [12])	drug sensitivity score (HepG2 [13])	drug sensitivity score (U2OS [14])	drug sensitivity score (Vero E6 [15])
CC(C)(C)N1CCC(c2ccccc2)(c2ccccc2)CC1 [budipine]	98.4	103	86.3	102	82.7	96.9	97.3	101	101	96.7	88.8	95.8	101	102	88.9	91.9	99	97.3	102	97.6	96.1	91.8	91.9	93.9	98.8	> 10	> 10	> 10	> 10	> 10	0.3	0	0	0	0
COc1cc(N)c(Cl)cc1C(=O)NC1CCN(Cc2ccccc2)CC1 [clebopride]	107	99.9	108	102	85.6	94.3	101	107	96.6	94.2	97.1	97.5	95.1	104	94.7	93.7	97.2	96.8	97.3	94	93.6	104	102	97.6	98.1	> 10	> 10	> 10	> 10	> 10	0.1	0	0	0	0
O=C(O)c1ccccc1NC(=O)N1CCC(c2ccccc2C(F)(F)F)CC1 [A-1120]	100	93.2	98.4	96.8	84.2	102	96.5	100	94.1	106	88.2	96.1	107	103	108	104	104	102	100	98.7	101	100	93.1	95.4	93.5	> 10	> 10	> 10	> 10	> 10	0.6	0	0	0	0
CCCCCCCNS(=O)(=O)c1cccc2c(Cl)cccc12 [SC-10]	112	99.9	84.6	123	90.7	99.7	106	93.8	105	105	98.3	94.8	108	97.5	96.3	97.7	98.1	93.5	103	96.2	117	95.8	102	100	95.3	> 10	> 10	> 10	> 10	> 10	0	0	0	0	0
O=c1oc2c(O)c(O)cc3c(=O)oc4c(O)c(O)cc1c4c23 [ellagic-acid]	104	95.8	104	98.5	96.6	98.4	95.9	99.4	100	93.2	93.6	97	97.5	96.4	91.9	99.3	99.6	103	100	105	99.1	106	100	105	107	> 10	> 10	> 10	> 10	> 10	0	0	0	0	0
O=S(=O)(O)CCSSCCS(=O)(=O)O [dimesna]	95.7	99.5	101	98.5	92.5	96.8	96.3	85.7	90.7	86.2	94.6	98.8	102	98.7	97.7	104	98.7	103	104	101	101	108	104	98.5	100	> 10	> 10	> 10	> 10	> 10	0	1.4	0	0	0
CCn1c(-c2nonc2N)nc2cncc(CNC3CCNCC3)c21	93.6	95.1	105	105	80.4	94	103	102	120	114	94.8	104	89.1	80.6	79.7	93.9	98.2	96.7	97.3	76.3	93.3	104	101	93.8	94.1	> 10	> 10	> 10	> 10	> 10	0.4	0	3.9	1.3	0
